Experimental findings from US8642770B2, “Indole derivative” (Takeda Pharmaceutical Company Limited, priority 2010, dated 2014) are described below.

Counter-ions that a name gives are not always drawn.

In general, melting point refers to the temperature, or range, at which the solid turns liquid. `Cc1c(NC(=O)c2ccc(OC[C@@H]3CCCO3)cc2)ccc2c1cc(CN[C@H]1CC[C@](C)(O)CC1)n2C.Cl` returned a melting point of 278 °C.

In turn, `Cn1c(CNCC(C)(C)C)cc2cc(NC(=O)c3ccc(OC[C@@H]4CCCO4)cc3)ccc21` (as salt: acetate) [Example 15, N-(2-{[(2,2-dimethylpropyl)amino]methyl}-1-methyl-1H-indol-5-yl)-4-[(2S)-tetrahydrofuran-2-ylmethoxy]benzamide acetate] came in with a melting point of 150 to 151 °C. On to `CC1(CNCc2cc3cc(NC(=O)c4ccc(OCC5CC5)cc4)ccc3[nH]2)COC1` [Example 1, 4-(cyclopropylmethoxy)-N-[2-({[(3-methyloxetan-3-yl)methyl]amino}methyl)-1H-indol-5-yl]benzamide], for which the melting point is 166 to 167 °C. As for `O=C(Nc1ccc2[nH]c(CNCC3CCOCC3)cc2c1)c1ccc(OCC2CC2)cc1` [Example 3, 4-(cyclopropylmethoxy)-N-(2-{[(tetrahydro-2H-pyran-4-ylmethyl)amino]methyl}-1H-indol-5-yl)benzamide], the melting point is 160 °C. `Cn1c(CNCC2(C)COC2)cc2cc(NC(=O)c3ccc(OCC4CC4)cc3)ccc21` [Example 4, 4-(cyclopropylmethoxy)-N-[1-methyl-2-({[(3-methyloxetan-3-yl)methyl]amino}methyl)-1H-indol-5-yl]benzamide] showed a melting point of 154 to 155 °C.

As for `Cn1c(CNCC(C)(C)O)cc2cc(NC(=O)c3ccc(OCC4CC4)cc3)ccc21` [Example 5, 4-(cyclopropylmethoxy)-N-(2-{[(2-hydroxy-2-methylpropyl)amino]methyl}-1-methyl-1H-indol-5-yl)benzamide], the melting point was in the range of 188 to 189 °C. Compound `Cn1c(CNCC(C)(C)S(C)(=O)=O)cc2cc(NC(=O)c3ccc(OCC4CC4)cc3)ccc21` [Example 7, 4-(cyclopropylmethoxy)-N-[1-methyl-2-({[2-methyl-2-(methylsulfonyl)propyl]amino}methyl)-1H-indol-5-yl]benzamide] had a melting point of 168 to 169 °C. Consider `Cn1c(CN[C@H]2CC[C@H](O)CC2)cc2cc(NC(=O)c3ccc(OCC4CC4)cc3)ccc21` [Example 8, 4-(cyclopropylmethoxy)-N-(2-{[(trans-4-hydroxycyclohexyl)amino]methyl}-1-methyl-1H-indol-5-yl)benzamide], for which the melting point lay within 196 to 197 °C. Under `Cn1c(CNC[C@H]2CCCO2)cc2cc(NC(=O)c3ccc(OCC4CC4)cc3)ccc21` [Example 10, 4-(cyclopropylmethoxy)-N-[1-methyl-2-({[(2R)-tetrahydrofuran-2-ylmethyl]amino}methyl)-1H-indol-5-yl]benzamide] stands 138 to 139 °C. Consider `Cn1c(CNC[C@@H]2CCCO2)cc2cc(NC(=O)c3ccc(OCC4CC4)cc3)ccc21` [Example 11, 4-(cyclopropylmethoxy)-N-[1-methyl-2-({[(2S)-tetrahydrofuran-2-ylmethyl]amino}methyl)-1H-indol-5-yl]benzamide], for which the melting point was determined as 139 °C. `CC(C)CNCc1cc2cc(NC(=O)c3ccc(OC[C@@H]4CCCO4)cc3)ccc2n1C` [Example 16, N-(1-methyl-2-{[(2-methylpropyl)amino]methyl}-1H-indol-5-yl)-4-[(2S)-tetrahydrofuran-2-ylmethoxy]benzamide] returned a melting point of 132 to 133 °C. The compound `Cn1c(CNC2CCC(C)(O)CC2)cc2cc(NC(=O)c3ccc(OC[C@@H]4CCCO4)cc3)ccc21` (stereo partly drawn) [Example 18, N-(2-{[(trans-4-hydroxy-4-methylcyclohexyl)amino]methyl}-1-methyl-1H-indol-5-yl)-4-[(2S)-tetrahydrofuran-2-ylmethoxy]benzamide] yielded a melting point of 154 °C. To `Cn1c(CNCC(C)(C)O)cc2cc(NC(=O)c3ccc(OC[C@@H]4CCCO4)cc3)ccc21` [Example 19, N-(2-{[(2-hydroxy-2-methylpropyl)amino]methyl}-1-methyl-1H-indol-5-yl)-4-[(2S)-tetrahydrofuran-2-ylmethoxy]benzamide] belongs 188 to 190 °C; to `CC(C)CNCc1cc2cc(NC(=O)c3ccc(OCC4CCOC4)cc3)ccc2n1C` (stereo not shown) [Example 21, N-(1-methyl-2-{[(2-methylpropyl)amino]methyl}-1H-indol-5-yl)-4-(tetrahydrofuran-3-ylmethoxy)benzamide], 125 to 126 °C; to `Cn1c(CNCC(C)(C)C)cc2cc(NC(=O)c3ccc(OCC4CCOC4)cc3)ccc21` (stereo not shown) [Example 22, N-(2-{[(2,2-dimethylpropyl)amino]methyl}-1-methyl-1H-indol-5-yl)-4-(tetrahydrofuran-3-ylmethoxy)benzamide], 162 to 163 °C.

`Cn1c(CNCC2CCOCC2)cc2cc(NC(=O)c3ccc(OCC4CCOC4)cc3)ccc21` (stereo not shown) [Example 23, N-(1-methyl-2-{[(tetrahydro-2H-pyran-4-ylmethyl)amino]methyl}-1H-indol-5-yl)-4-(tetrahydrofuran-3-ylmethoxy)benzamide] came in with a melting point of 153 to 154 °C. Under `Cn1c(CN[C@H]2CC[C@](C)(O)CC2)cc2cc(NC(=O)c3ccc(OCC4CCOC4)cc3)ccc21` (stereo partly drawn) [Example 24, N-(2-{[(trans-4-hydroxy-4-methylcyclohexyl)amino]methyl}-1-methyl-1H-indol-5-yl)-4-(tetrahydrofuran-3-ylmethoxy)benzamide] stands 181 to 182 °C; under `Cn1c(CNCC(C)(C)O)cc2cc(NC(=O)c3ccc(OCC4CCOC4)cc3)ccc21` (stereo not shown) [Example 25, N-(2-{[(2-hydroxy-2-methylpropyl)amino]methyl}-1-methyl-1H-indol-5-yl)-4-(tetrahydrofuran-3-ylmethoxy)benzamide], 169 °C; under `Cn1c(CNCC2CCOC2)cc2cc(NC(=O)c3ccc(OCC4CCOC4)cc3)ccc21` (stereo not shown) [Example 26, N-(1-methyl-2-{[(tetrahydrofuran-3-ylmethyl)amino]methyl}-1H-indol-5-yl)-4-(tetrahydrofuran-3-ylmethoxy)benzamide], 131 to 133 °C. As to `Cn1c(CNCC(C)(C)O)cc2cc(NC(=O)c3ccc(OC[C@@H]4CCCO4)cc3F)ccc21` [Example 27, 2-fluoro-N-(2-{[(2-hydroxy-2-methylpropyl)amino]methyl}-1-methyl-1H-indol-5-yl)-4-[(2S)-tetrahydrofuran-2-ylmethoxy]benzamide], the melting point lay within 159 to 160 °C. In turn, `Cn1c(CN[C@H]2CC[C@](C)(O)CC2)cc2cc(NC(=O)c3ccc(OC[C@@H]4CCCO4)cc3F)ccc21` [Example 28, 2-fluoro-N-(2-{[(trans-4-hydroxy-4-methylcyclohexyl)amino]methyl}-1-methyl-1H-indol-5-yl)-4-[(2S)-tetrahydrofuran-2-ylmethoxy]benzamide] came in with a melting point of 138 to 139 °C. To `CC(C)CNCc1cc2cc(NC(=O)c3ccc(C#CC4(O)CCC4)cc3)ccc2n1C` [Example 29, 4-[(1-hydroxycyclobutyl)ethynyl]-N-(2-{[(2-methylpropyl)amino]methyl}-1-methyl-1H-indol-5-yl)benzamide] belongs 168 to 169 °C; to `Cn1c(CNCC(C)(C)C)cc2cc(NC(=O)c3ccc(C#CC4(O)CCC4)cc3)ccc21` [Example 30, N-(2-{[(2,2-dimethylpropyl)amino]methyl}-1-methyl-1H-indol-5-yl)-4-[(1-hydroxycyclobutyl)ethynyl]benzamide], 160 to 161 °C. Compound `Cn1c(CNCC(C)(C)C)cc2cc(NC(=O)c3ccc(C#CC4(O)CC4)cc3)ccc21` [Example 31, N-(2-{[(2,2-dimethylpropyl)amino]methyl}-1-methyl-1H-indol-5-yl)-4-[(1-hydroxycyclopropyl)ethynyl]benzamide] had a melting point of 173 °C. In the case of `Cc1c(CNCC2CCOCC2)[nH]c2ccc(NC(=O)c3ccc(OC[C@@H]4CCCO4)cc3)cc12` [Example 33, N-(3-methyl-2-{[(tetrahydro-2H-pyran-4-ylmethyl)amino]methyl}-1H-indol-5-yl)-4-[(2S)-tetrahydrofuran-2-ylmethoxy]benzamide], the melting point lay in the range of 146 to 147 °C. With `Cc1c(CNCC(C)C)n(C)c2ccc(NC(=O)c3ccc(OC[C@@H]4CCCO4)cc3)cc12` [Example 34, N-(2-{[(2-methylpropyl)amino]methyl}-1,3-dimethyl-1H-indol-5-yl)-4-[(2S)-tetrahydrofuran-2-ylmethoxy]benzamide], the melting point was in the range of 145 to 146 °C. With `Cc1c(CNCC2CCOCC2)n(C)c2ccc(NC(=O)c3ccc(OC[C@@H]4CCCO4)cc3)cc12` [Example 35, N-(1,3-dimethyl-2-{[(tetrahydro-2H-pyran-4-ylmethyl)amino]methyl}-1H-indol-5-yl)-4-[(2S)-tetrahydrofuran-2-ylmethoxy]benzamide], the melting point is 185 to 186 °C. Compound `Cc1c(CNCC(C)(C)O)n(C)c2ccc(NC(=O)c3ccc(OC[C@@H]4CCCO4)cc3)cc12` [Example 36, N-(2-{[(2-hydroxy-2-methylpropyl)amino]methyl}-1,3-dimethyl-1H-indol-5-yl)-4-[(2S)-tetrahydrofuran-2-ylmethoxy]benzamide] displayed a melting point of 145 to 146 °C. For the compound `Cc1c(CNCC(C)(C)C)n(C)c2ccc(NC(=O)c3ccc(OC[C@@H]4CCCO4)cc3)cc12` [Example 37, N-(2-{[(2,2-dimethylpropyl)amino]methyl}-1,3-dimethyl-1H-indol-5-yl)-4-[(2S)-tetrahydrofuran-2-ylmethoxy]benzamide], the melting point lay in the range of 165 to 166 °C. As to `Cc1c(CN[C@H]2CC[C@](C)(O)CC2)n(C)c2ccc(NC(=O)c3ccc(OC[C@@H]4CCCO4)cc3)cc12` [Example 38, N-(2-{[(trans-4-hydroxy-4-methylcyclohexyl)amino]methyl}-1,3-dimethyl-1H-indol-5-yl)-4-[(2S)-tetrahydrofuran-2-ylmethoxy]benzamide], the melting point fell in the range of 172 to 173 °C. For `Cc1c(CNCC(C)C)n(C)c2ccc(NC(=O)c3ccc(OCC4CC4)cc3)cc12` [Example 39, 4-(cyclopropylmethoxy)-N-(2-{[(2-methylpropyl)amino]methyl}-1,3-dimethyl-1H-indol-5-yl)benzamide], the melting point lay in the range of 142 to 143 °C.
